Measured values published in the supplement of paper PMC11208160.

Assay: recombinant UMI read abundance after kanamycin selection (control-corrected) (log10(CPM+1)); higher = more efficient recombination; extreme values may be limits of the assay; sequences stand for … in AGTGCAGAGAAAATCGGCCAGTTTTCTCTGCCTGCAGTCCGCATGCCGTGGGACCCCTTGGGTTCTAACCTGTTGCCTAGATTTATGCAGCGGACTGCCTTTCTCCCAAAGTGATAAACCGG…AGGTTGGTTTCACT; site = the 11-nt donor
Summary of the method: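 Each donor and donor-binding-loop pair was tracked by a 12-nt UMI on a plasmid carrying a promoterless kanamycin gene. With a second plasmid supplying a fixed target and T7-inducible IS621 bridge recombinase, the pool was plated in Escherichia coli on IPTG (0.07 mM) plus kanamycin or unselected. Sequencing of recombinant UMIs across the donor–target junction gave counts expressed as log10(CPM+1) after replicate averaging and control-derived scaling.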
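Also: IS621 bridge recombinase in Escherichia coli cells against a fixed T5 target plasmid.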

Sequence	recombinant UMI read abundance (log10)
CCTAAAGCATGGACCGGTTTTCCCGGTAATCCGTATTTGAT (site CGTAAAGCTAT)	0
CCTAAAGCATGGACCGGTTTTCCCGGTAATCCGTATTTGAT (site CTTAAAGCTAT)	0.00697
CCTAAAGCATGGACCGGTTTTCCCGGTAATCCGTATTTGAT (site GCTAAAGCTAT)	0
CCTAAAGCATGGACCGGTTTTCCCGGTAATCCGTATTTGAT (site TCTAAAGCTAT)	0.00543
CCTAAAGCATGGACCGGTTTTCCCGGTAATCCGTATTTGGA (site CCTAAAGCTTC)	0.0116
CCTAAGACATGGACCGGTTTTCCCGGTAATCCGTATTTGGC (site CCTAAAACTGC)	0
CCTAAGACATGGACCGGTTTTCCCGGTAATCCGTATTTGGC (site CCTAACACTGC)	0
CCTAAGACATGGACCGGTTTTCCCGGTAATCCGTATTTGGC (site CCTAAGACTGC)	0
CCTAAGACATGGACCGGTTTTCCCGGTAATCCGTATTTGGC (site CCTAATACTGC)	0
CCTAAGGCATGGACCGGTTTTCCCGGTAATCCGTATTTGAT (site CCTAAAGCTAT)	0
CCTAAGGCATGGACCGGTTTTCCCGGTAATCCGTATTTGAT (site CCTAACGCTAT)	0.00671
CCTAAGGCATGGACCGGTTTTCCCGGTAATCCGTATTTGAT (site CCTAAGGCTAT)	0.0186
CCTAAGGCATGGACCGGTTTTCCCGGTAATCCGTATTTGAT (site CCTAATGCTAT)	0
CCTAATACATGGACCGGTTTTCCCGGTAATCCGTATTTGGC (site ACTAATACTGC)	0
CCTAATACATGGACCGGTTTTCCCGGTAATCCGTATTTGGC (site CATAATACTGC)	0
CCTAATACATGGACCGGTTTTCCCGGTAATCCGTATTTGGC (site CCAAATACTGC)	0
CCTAATACATGGACCGGTTTTCCCGGTAATCCGTATTTGGC (site CCCAATACTGC)	0
CCTAATACATGGACCGGTTTTCCCGGTAATCCGTATTTGGC (site CCGAATACTGC)	0
CCTAATACATGGACCGGTTTTCCCGGTAATCCGTATTTGGC (site CCTAAAACTGC)	0.00801
CCTAATACATGGACCGGTTTTCCCGGTAATCCGTATTTGGC (site CCTAACACTGC)	0
CCTAATACATGGACCGGTTTTCCCGGTAATCCGTATTTGGC (site CCTAAGACTGC)	0
CCTAATACATGGACCGGTTTTCCCGGTAATCCGTATTTGGC (site CCTAATACTAC)	0.0181
CCTAATACATGGACCGGTTTTCCCGGTAATCCGTATTTGGC (site CCTAATACTCC)	0.00819
CCTAATACATGGACCGGTTTTCCCGGTAATCCGTATTTGGC (site CCTAATACTGA)	0.0391
CCTAATACATGGACCGGTTTTCCCGGTAATCCGTATTTGGC (site CCTAATACTGC)	0

Sequence	recombinant UMI read abundance (log10)
CCTAATACATGGACCGGTTTTCCCGGTAATCCGTATTTGGC (site CCTAATACTGG)	0
CCTAATACATGGACCGGTTTTCCCGGTAATCCGTATTTGGC (site CCTAATACTGT)	0
CCTAATACATGGACCGGTTTTCCCGGTAATCCGTATTTGGC (site CCTAATACTTC)	0.00574
CCTAATACATGGACCGGTTTTCCCGGTAATCCGTATTTGGC (site CCTAATCCTGC)	0.00798
CCTAATACATGGACCGGTTTTCCCGGTAATCCGTATTTGGC (site CCTAATGCTGC)	0
CCTAATACATGGACCGGTTTTCCCGGTAATCCGTATTTGGC (site CCTAATTCTGC)	0
CCTAATACATGGACCGGTTTTCCCGGTAATCCGTATTTGGC (site CCTACTACTGC)	0.0125
CCTAATACATGGACCGGTTTTCCCGGTAATCCGTATTTGGC (site CCTAGTACTGC)	0
CCTAATACATGGACCGGTTTTCCCGGTAATCCGTATTTGGC (site CCTATTACTGC)	0
CCTAATACATGGACCGGTTTTCCCGGTAATCCGTATTTGGC (site CCTCATACTGC)	0
CCTAATACATGGACCGGTTTTCCCGGTAATCCGTATTTGGC (site CCTGATACTGC)	0.00582
CCTAATACATGGACCGGTTTTCCCGGTAATCCGTATTTGGC (site CCTTATACTGC)	0
CCTAATACATGGACCGGTTTTCCCGGTAATCCGTATTTGGC (site CGTAATACTGC)	0
CCTAATACATGGACCGGTTTTCCCGGTAATCCGTATTTGGC (site CTTAATACTGC)	0
CCTAATACATGGACCGGTTTTCCCGGTAATCCGTATTTGGC (site GCTAATACTGC)	0
CCTAATACATGGACCGGTTTTCCCGGTAATCCGTATTTGGC (site TCTAATACTGC)	0
CCTAATTCATGGACCGGTTTTCCCGGTAATCCGTATTTGAT (site CCTAATTCTAT)	0
CCTACAGCATGGACCGGTTTTCCCGGTAATCCGTATTTGAT (site CCTAAAGCTAT)	0
CCTACAGCATGGACCGGTTTTCCCGGTAATCCGTATTTGAT (site CCTACAGCTAT)	0.00631
CCTACAGCATGGACCGGTTTTCCCGGTAATCCGTATTTGAT (site CCTAGAGCTAT)	0
CCTACAGCATGGACCGGTTTTCCCGGTAATCCGTATTTGAT (site CCTATAGCTAT)	0.002
CCTAGAGCATGGACCGGTTTTCCCGGTAATCCGTATTTGAT (site CCTAAAGCTAT)	0
CCTAGAGCATGGACCGGTTTTCCCGGTAATCCGTATTTGAT (site CCTACAGCTAT)	0.00404
CCTAGAGCATGGACCGGTTTTCCCGGTAATCCGTATTTGAT (site CCTAGAGCTAT)	0.00624
CCTAGAGCATGGACCGGTTTTCCCGGTAATCCGTATTTGAT (site CCTATAGCTAT)	0

Sequence	recombinant UMI read abundance (log10)
CCTAGCACATGGACCGGTTTTCCCGGTAATCCGTATTTGGT (site CCTAGCACTAC)	0.00677
CCTAGGTCATGGACCGGTTTTCCCGGTAATCCGTATTTGAA (site CCTAGGTCTTT)	0.213
CCTAGTACATGGACCGGTTTTCCCGGTAATCCGTATTTGGC (site CCTAATACTGC)	0
CCTAGTACATGGACCGGTTTTCCCGGTAATCCGTATTTGGC (site CCTACTACTGC)	0
CCTAGTACATGGACCGGTTTTCCCGGTAATCCGTATTTGGC (site CCTAGTACTGC)	0
CCTAGTACATGGACCGGTTTTCCCGGTAATCCGTATTTGGC (site CCTATTACTGC)	0
CCTAGTTCATGGACCGGTTTTCCCGGTAATCCGTATTTGAA (site CCTAGTTCTTT)	0
CCTATGTCATGGACCGGTTTTCCCGGTAATCCGTATTTGTC (site CCTATGTCTGA)	0
CCTCACTCATGGACCGGTTTTCCCGGTAATCCGTATTTGCA (site CCTCACTCTTG)	0.399
CCTCATACATGGACCGGTTTTCCCGGTAATCCGTATTTGGC (site CCTAATACTGC)	0
CCTCATACATGGACCGGTTTTCCCGGTAATCCGTATTTGGC (site CCTCATACTGC)	0
CCTCATACATGGACCGGTTTTCCCGGTAATCCGTATTTGGC (site CCTGATACTGC)	0
CCTCATACATGGACCGGTTTTCCCGGTAATCCGTATTTGGC (site CCTTATACTGC)	0
CCTCTCTCATGGACCGGTTTTCCCGGTAATCCGTATTTGTA (site CATCTCTCTTA)	0.00925
CCTCTCTCATGGACCGGTTTTCCCGGTAATCCGTATTTGTA (site CCTCTCTCTTA)	0.53
CCTCTCTCATGGACCGGTTTTCCCGGTAATCCGTATTTGTA (site CGTCTCTCTTA)	0
CCTCTCTCATGGACCGGTTTTCCCGGTAATCCGTATTTGTA (site CTTCTCTCTTA)	0.0036
CCTGACACATGGACCGGTTTTCCCGGTAATCCGTATTTGTC (site CCTGACACTGA)	0
CCTGCAGCATGGACCGGTTTTCCCGGTAATCCGTATTTGTG (site CCTGCAGCTCA)	0.0206
CCTGCCGCATGGACCGGTTTTCCCGGTAATCCGTATTTGCC (site CCTGCCGCTGG)	0
CCTGGTCCATGGACCGGTTTTCCCGGTAATCCGTATTTGCA (site CCAGGTCCTTG)	0
CCTGGTCCATGGACCGGTTTTCCCGGTAATCCGTATTTGCA (site CCCGGTCCTTG)	0.00677
CCTGGTCCATGGACCGGTTTTCCCGGTAATCCGTATTTGCA (site CCGGGTCCTTG)	0
CCTGGTCCATGGACCGGTTTTCCCGGTAATCCGTATTTGCA (site CCTGGTCCTTG)	0
CCTTAGGCATGGACCGGTTTTCCCGGTAATCCGTATTTGTT (site CCTTAGGCTAA)	0.0132
